Assay results from US8623865B2, “Acylpiperazinones and their use as pharmaceuticals” (Fab Parma S.A.S, priority 2009, dated 2014).
In brackets after ≈: the same amount, converted by molar mass. Several values for one entry are separate records, joined by “and”; a condition that tells them apart may be missing. Identical values can stand only once. Like-named read-outs stand apart in the source and are kept apart here.

Tests used:
MRSA (IHMA #510059) = assay: MIC, broth microdilution (susceptibility method), MRSA; type: cell-based; details: Staphylococcus aureus, read-out: MIC MRSA (IHMA #510059)
Description: (§1) Antibacterial activity was determined on MSSA CIP 54.146 provided by the Centre de Ressources Biologiques de l'Institut Pasteur. Antibacterial activity was also determined on MRSA (IHMA #510059) and MSSA (IHMA #555189).
(§2) Minimum inhibitory concentrations (MICs) were determined by broth microdilution according to CLSI guidelines (CLSI, M100-20^1, M7-A8^2, M27-A3^3). The compounds were tested in the range from […]. Colonies were taken directly from a second-pass culture plate and prepared to a suspension equivalent to the 0.5 McFarland standard using normal saline. […] The panels were incubated at 35° C. for 16 to 20 hours before reading the MIC endpoints. The compounds of Examples 4 to 8 were dissolved in DMSO to make the initial solutions of 5120 μg/ml. These solutions were diluted 1:10 in sterile water to a stock solution of 512 μg/ml. The stock solutions were further diluted into the appropriate broth medium for the sequential dilutions used in the broth microdilution panels. S. pneumoniae was tested in Mueller Hinton (MH) broth with 3% lysed horse blood and C. albicans was tested in RPMI-1640 medium. All other organisms were tested in MH broth.

MSSA (IHMA #555189) = assay: MIC, broth microdilution (susceptibility method), MSSA; type: cell-based; details: Staphylococcus aureus, read-out: MIC MSSA (IHMA #555189)
Description: as §1, §2

HSA = HSA (Homo sapiens (Human), UniProt P02768); assay: HSA binding analysis using a chiral HSA column; type: in vitro ADME
Chain of HSA (P02768 25-609): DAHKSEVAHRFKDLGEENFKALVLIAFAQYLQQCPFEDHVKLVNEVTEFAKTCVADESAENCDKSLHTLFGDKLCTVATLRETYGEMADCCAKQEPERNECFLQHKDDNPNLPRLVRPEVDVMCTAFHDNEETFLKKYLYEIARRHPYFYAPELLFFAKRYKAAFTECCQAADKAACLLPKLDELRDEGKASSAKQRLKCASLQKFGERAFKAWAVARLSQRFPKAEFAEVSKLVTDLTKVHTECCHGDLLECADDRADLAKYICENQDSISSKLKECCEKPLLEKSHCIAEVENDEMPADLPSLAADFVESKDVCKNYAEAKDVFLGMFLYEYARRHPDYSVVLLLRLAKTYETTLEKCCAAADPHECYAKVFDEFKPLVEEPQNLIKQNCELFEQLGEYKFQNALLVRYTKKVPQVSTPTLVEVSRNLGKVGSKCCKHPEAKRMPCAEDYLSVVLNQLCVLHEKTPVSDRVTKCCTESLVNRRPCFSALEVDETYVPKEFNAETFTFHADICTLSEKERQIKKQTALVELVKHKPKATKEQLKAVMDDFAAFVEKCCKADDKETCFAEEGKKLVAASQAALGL
Description: The test system used in this analysis was an HSA chiral column.
A 10 mM stock solution of Example 7 (molecular weight of 475.49 and HPLC purity 86.3%) was prepared by dissolving 1.8 mg of a compound of Example 7 in 0.327 ml of DMSO. The compound of Example 7 at a concentration of 100 μM was prepared by diluting the stock solution at 10 mM in DMSO with Potassium phosphate buffer pH 7.0.
The relationship between the retention time (Tr) and percentage of protein binding (PB %) depended on the dead time (T0) and the capacity factor (k′): PB %=[k′/(k′+1)]*100 • where k′=(Tr−T0)/T0 Results

E. faecalis (ATCC 29212) = assay: MIC, broth microdilution (susceptibility method), E. faecalis; type: cell-based; details: Enterococcus faecalis, ATCC29212, MH broth
Description: as §2

[1] = system: S. pneumoniae (ATCC 49619); assay: MIC, broth microdilution (susceptibility method), S. pneumoniae; type: cell-based; details: Streptococcus pneumoniae, ATCC49619, MH broth with 3% lysed horse blood
Description: as §2

E. coli (ATCC 25922) = assay: MIC, broth microdilution (susceptibility method), E. coli; type: cell-based; details: Escherichia coli, ATCC25922, MH broth
Description: as §2

C. albicans (ATCC 90028) = assay: MIC, broth microdilution (susceptibility method), C. albicans; type: cell-based; details: Candida albicans, ATCC90028, RPMI-1640 medium
Description: as §2

[2] = rats, intravenous; cited from earlier work
[3] = target: recombinant S. aureus FabI enzyme (Staphylococcus aureus (strain MRSA252), UniProt Q6GI75); assay: In vitro inhibition of recombinant S. aureus FabI enzyme (fluorescence based assay); type: biochemical; details: 60 min pre-incubation
Description: Compound inhibitory activity of FabI enzyme is measured in vitro by the IC50 determination using a fluorescence based assay.
The protein FabI from S. aureus is prepared and purified using standard methods for recombinant protein expression after cloning of the gene in a prokaryotic expression vector.
The biochemical activity of the FabI enzyme is assessed using the following method.
The assay buffer “AB” contained 50 mM ADA (N-(2-acetamido)iminodiacetic acid monosodium salt) pH 6.5, 1 mM dithiothreitol, 0.006% Triton-X100 and 50 mM NaCl. The following components are added in a white polystyrene Costar plate (Ref 3912) up to a final volume of 55.5 μL: 1.5 μL DMSO or inhibitor dissolved in DMSO and 54 μL of a FabI/NADPH/NADP+ mixture in AB. After 60 min of pre-incubation at room temperature, the reaction is started by addition of 5 μL of trans-2-octenoyl N-acetylcysteamine thioester (t-o-NAC) to a final volume of 60.5 μL. This reaction mixture is then composed of 2 nM FabI, 40 μM NADPH (Sigma, N7505), 10 μM NADP+ (Sigma, N5755), 100 μM t-O-NAC and compound at defined concentration. Fluorescence intensity of NADPH (λex=360 nm, λem=520 nm) is measured immediately after t-O-NAC addition (T0), and approximately 50 min later (T50) by a Fluostar Optima (BMG) so as to achieve ±30% of NADPH conversion. Enzyme activity is calculated by first subtracting TO signal to T50 and then subtracting background signal (FabI=0). Percentages of inhibition are calculated against untreated samples (Inhibitor=0) and IC50 are fitted to a classical Langmuir equilibrium model using XLFIT (IDBS).

[4] = system: S. aureus CIP 54.146 (MSSA); assay: MIC, broth microdilution, S. aureus CIP 54.146 (with and without 80% human serum); type: cell-based; details: Staphylococcus aureus
Description: The compounds of the invention are useful antibacterial agents having a selective spectrum of activity in vitro against bacterial strains relying on FabI and related targets. […] The activity is presented as Minimum Inhibitory Concentration (MIC) expressed in μg/ml and was determined using broth microdilution or Agar dilution methods.
as §1
This protocol is compliant with Clinical Laboratory Standards Institute (CLSI) methodology as described in M7-A7 document of the CLSI. The compound to be tested is diluted according to a geometric series of reason 2 in pure DMSO. Dilutions are transferred in sterile polystyrene microplates, followed by mid-log phase bacteria in cation-adjusted Muller-Hinton broth (ca-MHB, Fluka, Reference 90922) with a final inoculum of 5×10^5 cfu/ml. Microplates are incubated overnight at 35° C. MIC is defined as the lowest concentration of antimicrobial agent that completely prevents visible bacterial growth. All manipulations, but compound handling (in pure DMSO), are performed under sterile conditions. The final concentration of DMSO in the plates is 2%.
In order to evaluate the serum binding of test compounds, MICs were also measured in ca-MHB supplemented with 80% human serum (HS, Sigma, Reference H4522).

[5] = system: methicillin susceptible Staphylococcus aureus strain ATCC 29213; assay: In vivo protection assay, S. aureus infection of neutropenic mice (survival); set-up: species or system Swiss mice; details: 48 h
[6] = ca-MHB supplemented with 80% human serum, read-out: MIC S. aureus CIP 54.146 in the presence of 80% human serum
[7] = ca-MHB, read-out: MIC S. aureus CIP 54.146

`CCc1cc(O)c(Oc2ccc(C(=O)N3CC(=O)NC(=O)C3)cc2F)cc1F` [Example 4, 4-[4-(4-Ethyl-5-fluoro-2-hydroxyphenoxy)-3-fluorobenzoyl]piperazine-2,6-dione] gave an MIC (MRSA (IHMA #510059); broth microdilution, MH broth) of 32 µg/mL (≈ 82 µM) and an MIC (MSSA (IHMA #555189); broth microdilution, MH broth) of 4 µg/mL (≈ 10.2 µM).

In the case of `CCc1cc(O)c(Oc2ccc(C(=O)N3CCN(CN4CCOCC4)C(=O)C3)cc2F)cc1F` [Example 7, 4-[4-(4-Ethyl-5-fluoro-2-hydroxyphenoxy)-3-fluorobenzoyl]-1-(morpholinomethyl)piperazin-2-one], the “Binding to HSA (in words)” value (HSA) is reported as “moderate binding”, the “HSA Binding (%)” value (HSA; 37° C., pH 7.0, 100 μM) is reported as 74.9% and the “C (average)” value (HSA; average of 3 tests) is reported as 0.75. For the same molecule, the “k′ (average)” value (HSA; average of 3 tests) was 2.987, the “k′ (capacity factor)” value (HSA; single test) was 2.987 and 2.981 and 2.993 and the MIC (E. faecalis (ATCC 29212)) was 64 µg/mL (≈ 135 µM). The MIC (MRSA (IHMA #510059)) was 0.06 µg/mL (≈ 0.126 µM), the MIC [1] was > 128 µg/mL and the MIC (E. coli (ATCC 25922)) was 4 µg/mL (≈ 8.41 µM). The MIC (C. albicans (ATCC 90028)) was > 128 µg/mL and the MIC (MSSA (IHMA #555189)) was 0.06 µg/mL (≈ 0.126 µM).

For `Oc1cc(Cl)ccc1Oc1ccc(Cl)cc1Cl` [Triclosan], the LD50 [2] is listed as 29 mg/kg.

Molecule `CCc1cc(O)c(Oc2ccc(C(=O)N3CCN(CC(N)=O)C(=O)C3)cc2F)cc1F` [Example 6, 2-[4-(4-(4-Ethyl-5-fluoro-2-hydroxyphenoxy)-3-fluorobenzoyl]-2-oxopiperazin-1-yl)acetamide] has an MIC (MRSA (IHMA #510059); broth microdilution, MH broth) of 4 µg/mL (≈ 9.23 µM) and an MIC (MSSA (IHMA #555189); broth microdilution, MH broth) of 0.25 µg/mL (≈ 0.577 µM).

Molecule `CCc1cc(O)c(Oc2ccc(C(=O)N3CCN(C)C(=O)C3)cc2F)cc1F` [Example 5, 4-[4-(4-Ethyl-5-fluoro-2-hydroxyphenoxy)-3-fluorobenzoyl]-1-methylpiperazin-2-one] has an MIC (MRSA (IHMA #510059); broth microdilution, MH broth) of 1 µg/mL (≈ 2.56 µM) and an MIC (MSSA (IHMA #555189); broth microdilution, MH broth) of 0.015 µg/mL (≈ 0.0384 µM).

`CCc1ccc(Oc2ccc(C(=O)N3CCNC(=O)C3)cc2F)c(O)c1` [Example 2, 4-[4-(4-Ethyl-2-hydroxyphenoxy)-3-fluorobenzoyl]piperazin-2-one] showed an IC50 [3] of 29 nM, an MIC [4, 6] of 1 µg/mL and an MIC [4, 7] of 1 µg/mL (≈ 2.79 µM).

For `CCc1cc(O)c(Oc2ccc(C(=O)N3CCNC(=O)C3)cc2F)cc1F` [Example 1, 4-[4-(4-Ethyl-5-fluoro-2-hydroxyphenoxy)-3-fluorobenzoyl]piperazin-2-one], the “Protection of infected mice (survival rate)” value ([5]; single oral administration, 100 and 200 mg/kg) was “able to protect mice against bacterial dissemination”, the “Protection of infected mice (survival rate)” value ([5]; single subcutaneous administration, 6.25 and 12.5 mg/kg) was “able to protect mice against bacterial dissemination” and the IC50 [3] was 16 nM. It also gave an MIC [4, 6] of 0.5 µg/mL and an MIC [4, 7] of 0.25 µg/mL (≈ 0.664 µM).

Work on `CCOC(=O)Oc1cc(CC)c(F)cc1Oc1ccc(C(=O)N2CCNC(=O)C2)cc1F` [Example 3, 4-Fluoro-2-{2-fluoro-4-[(3-oxopiperazin-1-yl)carbonyl]phenoxy}-5-ethylphenyl ethyl carbonate] yielded an IC50 [3] of 5000 nM.

Molecule `CCc1cc(O)c(Oc2ccc(C(=O)N3CCNC(=O)C3C)cc2F)cc1F` (centres unmarked) [Example 8, 4-[4-(4-Ethyl-5-fluoro-2-hydroxyphenoxy)-3-fluorobenzoyl]-3-methyl piperazin-2-one] has an MIC (MRSA (IHMA #510059); broth microdilution, MH broth) of 1 µg/mL (≈ 2.56 µM) and an MIC (MSSA (IHMA #555189); broth microdilution, MH broth) of 0.06 µg/mL (≈ 0.154 µM).
